Results: paper PMC8234143, “Synthesis and Antiviral Evaluation of Nucleoside Analogues Bearing One Pyrimidine Moiety and Two D-Ribofuranosyl Residues” (Molecules, 2021)
“Also recorded” adds a separate entry of the source. Read-outs that look alike come from different tables or passages of the source.

Legend:
[1] = system: A/Puerto Rico/8/34 (H1N1) influenza virus; experiment: Antiviral (cytoprotection, MTT) assay against influenza virus in MDCK cells; type: cell-based; settings: for IC50: 48 h; for SI: CC50/IC50 ratio, influenza H1N1 / MDCK
Coxsackie B3 virus [2] = experiment: Antiviral (cytoprotection, MTT) assay against Coxsackie B3 virus in Vero cells; type: cell-based, coxsackievirus B3; settings: for SI: CC50/IC50 ratio, Coxsackie B3 / Vero; for IC50: 48 h, 50% inhibition of virus replication, Vero cells
in vitro [3] = settings: dog
in vitro [4] = settings: African green monkey, CC50, Vero cells, MTT; concentration causing 50% cell death
[5] = system: A/Puerto Rico/8/34 (H1N1) influenza virus; design: method as in PMID 32930935; settings: cited from earlier work; for IC50: 50% inhibition of virus replication, MDCK cells, earlier published compounds; for SI: CC50/IC50 ratio, influenza H1N1 / MDCK; for antiviral activity against influenza virus A H1N1 (in words): monosubstituted analogues
Coxsackie B3 virus [6] = system: Coxsackie B3 virus; design: method as in PMID 32930935; settings: cited from earlier work; for SI: CC50/IC50 ratio, Coxsackie B3 / Vero; for IC50: 50% inhibition of virus replication, Vero cells
MDCK cells = settings: earlier published compounds; cited from earlier work
Vero cells [7] = settings: cited from earlier work
M-HeLa = experiment: Cytotoxicity assay (Cytell Cell Imaging, DAPI/propidium iodide); type: cell-based; settings: cytotoxic activity, human cervix epitheloid carcinoma, read-out: IC50 Cancer Cell Lines M-HeLa
HuTu-80 = experiment: as above; type: cell-based; settings: Homo sapiens, HuTu80; cytotoxic activity, duodenal adenocarcinoma; read-out: IC50 Cancer Cell Lines HuTu-80
PC-3 = experiment: as above; type: cell-based; settings: cytotoxic activity, human prostate adenocarcinoma, read-out: IC50 Cancer Cell Lines PC-3
WI-38 = experiment: as above; type: cell-based; settings: cytotoxic activity, normal human lung fibroblasts, read-out: IC50 Normal Cell Line WI-38
Vero cells [8] = settings: Vero cells, MTT; concentration causing 50% cell death
[9] = 50% inhibition of virus replication, MDCK cells, read-out: IC50
[10] = Influenza A virus, H1N1, MDCK, 50% inhibition of virus replication, MDCK cells, read-out: IC50

SMILES | SI [1] | IC50 [1, 10] | SI (Coxsackie B3 virus [2]) | IC50 (Coxsackie B3 virus [2]; Enterovirus B, B3, Vero) | CC50 (in vitro [3]) | CC50 (in vitro [4]) | IC50 [5] | SI [5] | further results
O=c1c2ccccc2n(CCCc2cn(C3OC(CO)C(O)C3O)nn2)c(=O)n1CCCc1cn(C2OC(CO)C(O)C2O)nn1 (stereo not shown) [Compound 4h] | 3 | > 100 µM | 1 | > 465 µM | > 465 µM | > 465 µM |  |  | IC50 [1, 9]: 186 ± 21.6 µM; antiviral activity against influenza virus A H1N1 (in words) ([1]; MDCK cells): did not demonstrate antiviral activity
CC(=O)OCC1OC(n2cc(CCCc3c(C)[nH]c(=O)n(CCCc4cn(C5OC(COC(C)=O)C(OC(C)=O)C5OC(C)=O)nn4)c3=O)nn2)C(OC(C)=O)C1OC(C)=O (stereo not shown) [Compound 11c] | 12 | 29.2 ± 4.3 µM |  |  | > 349 µM |  |  |  | 
Cc1[nH]c(=O)[nH]c(=O)c1CCCc1cn([C@@H]2O[C@H](CO)[C@@H](O)[C@H]2O)nn1 [Compound 11g] |  |  |  |  |  |  | 67 ± 8 µM | 2 ^4 | SI (Coxsackie B3 virus [6]): 4 ^4; CC50 (MDCK cells): 104 ± 8 µM; CC50 (Vero cells [7]): 140 ± 10 µM
O=c1[nH]cc(F)c(=O)[nH]1 [5-Fluorouracil, reference compound] |  |  |  |  |  |  |  |  | IC50 (M-HeLa): 62 ± 4.9 µM; IC50 (HuTu-80): 65.2 ± 5.5 µM; IC50 (PC-3): 10.3 ± 0.8 µM; IC50 (WI-38): 82.5 ± 6.6 µM
O=c1c2nc3ccccc3nc2n(Cc2cn(C3OC(CO)C(O)C3O)nn2)c(=O)n1Cc1cn(C2OC(CO)C(O)C2O)nn1 (stereo not shown) [Compound 5g] | 3 | > 100 µM | 1 | > 468 µM | > 468 µM | > 468 µM |  |  | IC50 [1, 9]: 187 ± 20.8 µM
Cc1cc(=O)[nH]c(=O)n1CCCc1cn([C@@H]2O[C@H](CO)[C@@H](O)[C@H]2O)nn1 [Compound 2k] |  |  |  |  |  |  | 43 ± 5 µM | 6 ^4 | IC50 (Coxsackie B3 virus [6]): > 1090 µM; SI (Coxsackie B3 virus [6]): 1 ^4,3; CC50 (Vero cells [7]): > 1090 µM
O=c1[nH]c(=O)n(Cc2cn([C@@H]3O[C@H](CO)[C@@H](O)[C@H]3O)nn2)c2ccccc12 [Compound 4j] |  |  |  |  |  |  | 42 ± 5 µM | 3 | IC50 (Coxsackie B3 virus [6]): 133 ± 15 µM; SI (Coxsackie B3 virus [6]): 1 ^4
CC(=O)OC[C@H]1O[C@@H](n2cc(CCCCc3c(C)[nH]c(=O)[nH]c3=O)nn2)[C@H](OC(C)=O)[C@@H]1OC(C)=O [Compound 11i] |  |  |  |  |  |  | > 592 µM | 1 ^4 | antiviral activity against influenza virus A H1N1 (in words) [5]: did not demonstrate antiviral activity; CC50 (MDCK cells): > 592 µM
CC(=O)OCC1OC(n2cc(CCCCc3c(C)[nH]c(=O)n(CCCCc4cn(C5OC(COC(C)=O)C(OC(C)=O)C5OC(C)=O)nn4)c3=O)nn2)C(OC(C)=O)C1OC(C)=O (stereo not shown) [Compound 11d] | 3 | 119 ± 8.7 µM |  |  | > 338 µM |  |  |  | antiviral activity against influenza virus A H1N1 (in words) ([1]; MDCK cells): did not demonstrate antiviral activity; also recorded: inactive
Cc1[nH]c(=O)n(CCCCc2cn(C3OC(CO)C(O)C3O)nn2)c(=O)c1CCCCc1cn(C2OC(CO)C(O)C2O)nn1 (stereo not shown) [Compound 11f] | 1 |  | 1 | > 471 µM | > 471 µM | > 471 µM |  |  | IC50 ([1]; Influenza A virus, H1N1, MDCK): > 471 µM; antiviral activity against influenza virus A H1N1 (in words) ([1]; MDCK cells): did not demonstrate antiviral activity
O=c1[nH]c(=O)n(CCCc2cn([C@@H]3O[C@H](CO)[C@@H](O)[C@H]3O)nn2)c2ccccc12 [Compound 4k] |  |  |  |  |  |  | 212 ± 25 µM | 4 ^4 | antiviral activity against influenza virus A H1N1 (in words) [5]: did not demonstrate antiviral activity; IC50 (Coxsackie B3 virus [6]): > 82 µM; SI (Coxsackie B3 virus [6]): 1 ^4,3; CC50 (MDCK cells): > 744 µM; CC50 (Vero cells [7]): 101 ± 8 µM
CC(N)C12CC3CC(CC(C3)C1)C2 (stereo not shown) [Rimantadine, reference compound] | 4 |  |  |  | 340 ± 16 µM |  |  |  | IC50 ([1]; Influenza A virus, H1N1, MDCK): 77 ± 8 µM
O=c1[nH]c(=O)n(CCCCc2cn([C@@H]3O[C@H](CO)[C@@H](O)[C@H]3O)nn2)c2ccccc12 [Compound 4m] |  |  |  |  |  |  | 30 ± 4 µM | 24 | IC50 (Coxsackie B3 virus [6]): > 79 µM; SI (Coxsackie B3 virus [6]): 1 ^4,3; CC50 (MDCK cells): > 719 µM
O=c1c2nc3ccccc3nc2n(CCCc2cn(C3OC(CO)C(O)C3O)nn2)c(=O)n1CCCc1cn(C2OC(CO)C(O)C2O)nn1 (stereo not shown) [Compound 5h] | 4 | > 100 µM | 1 | > 431 µM | > 431 µM | > 431 µM |  |  | IC50 [1, 9]: 115 ± 15.2 µM
O=c1c2ccccc2n(Cc2cn(C3OC(CO)C(O)C3O)nn2)c(=O)n1Cc1cn(C2OC(CO)C(O)C2O)nn1 (stereo not shown) [Compound 4g] | 3 | > 100 µM | 2 | > 170 µM | > 510 µM | 381 ± 26.1 µM |  |  | IC50 [1, 9]: 180 ± 19.9 µM
Cc1[nH]c(=O)[nH]c(=O)c1CCCCc1cn([C@@H]2O[C@H](CO)[C@@H](O)[C@H]2O)nn1 [Compound 11j] |  |  |  |  |  |  | > 787 µM | 1 | antiviral activity against influenza virus A H1N1 (in words) [5]: did not demonstrate antiviral activity; CC50 (MDCK cells): > 787 µM
CC(=O)OCC1OC(n2cc(CCCCn3c(=O)c4nc5ccccc5nc4n(CCCCc4cn(C5OC(COC(C)=O)C(OC(C)=O)C5OC(C)=O)nn4)c3=O)nn2)C(OC(C)=O)C1OC(C)=O (stereo not shown) [Compound 5f] | 3 | 91.6 ± 10.8 µM | 2 | 11.3 µM | > 308 µM | 18 µM |  |  | antiviral activity against influenza virus A H1N1 (in words) ([1]; MDCK cells): inactive; IC50 (Coxsackie B3 virus [2]): > 11.3 µM; IC50 (M-HeLa): 71.4 ± 6.3 µM; IC50 (HuTu-80): > 100 µM; IC50 (PC-3): 66.8 ± 5.3 µM; IC50 (WI-38): > 100 µM; CC50 (Vero cells [8]): 17.8 ± 1.1 µM
Cc1cc(=O)n(Cc2cn(C3OC(CO)C(O)C3O)nn2)c(=O)n1Cc1cn(C2OC(CO)C(O)C2O)nn1 (stereo not shown) [Compound 2g] | 1 | > 100 µM | 1 | > 543 µM | > 543 µM | > 543 µM |  |  | IC50 ([1]; Influenza A virus, H1N1, MDCK): > 543 µM; antiviral activity against influenza virus A H1N1 (in words) ([1]; MDCK cells): did not demonstrate antiviral activity
Cc1[nH]c(=O)[nH]c(=O)c1CCCCc1cn([C@@H]2O[C@H](CO)[C@@H](O)[C@H]2O)nn1 [Compound 11h] |  |  |  |  |  |  | 15 ± 3 µM | 5 | IC50 (Coxsackie B3 virus [6]): > 263 µM; SI (Coxsackie B3 virus [6]): 2 ^4; CC50 (MDCK cells): 79 ± 6 µM; CC50 (Vero cells [7]): 525 ± 31 µM
Cc1[nH]c(=O)n(CCCc2cn(C3OC(CO)C(O)C3O)nn2)c(=O)c1CCCc1cn(C2OC(CO)C(O)C2O)nn1 (stereo not shown) [Compound 11e] | 3 | 164 ± 19.2 µM | 2 | > 164 µM | > 493 µM | 394 ± 21.1 µM |  |  | antiviral activity against influenza virus A H1N1 (in words) ([1]; MDCK cells): completely inactive
CC(=O)OCC1OC(n2cc(CCCCn3c(=O)c4ccccc4n(CCCCc4cn(C5OC(COC(C)=O)C(OC(C)=O)C5OC(C)=O)nn4)c3=O)nn2)C(OC(C)=O)C1OC(C)=O (stereo not shown) [Compound 4f] | 3 | 104 ± 15.1 µM |  |  | > 324 µM |  |  |  | antiviral activity against influenza virus A H1N1 (in words) ([1]; MDCK cells): inactive
Cc1cc(=O)n(CCCc2cn(C3OC(CO)C(O)C3O)nn2)c(=O)n1CCCc1cn(C2OC(CO)C(O)C2O)nn1 (stereo not shown) [Compound 2h] | 1 | > 100 µM | 1 | > 493 µM | > 493 µM | > 493 µM |  |  | IC50 ([1]; Influenza A virus, H1N1, MDCK): > 493 µM
Cc1cc(=O)[nH]c(=O)n1Cc1cn([C@@H]2O[C@H](CO)[C@@H](O)[C@H]2O)nn1 [Compound 2j] |  |  |  |  |  |  | > 885 µM | 1 | antiviral activity against influenza virus A H1N1 (in words) [5]: did not demonstrate antiviral activity; IC50 (Coxsackie B3 virus [6]): > 1180 µM; SI (Coxsackie B3 virus [6]): 1 ^4; CC50 (MDCK cells): > 885 µM; CC50 (Vero cells [7]): > 1180 µM
Cc1cc(=O)[nH]c(=O)n1CCCCc1cn([C@@H]2O[C@H](CO)[C@@H](O)[C@H]2O)nn1 [Compound 2m] |  |  |  |  |  |  | 48 ± 6 µM | 6 ^4 | IC50 (Coxsackie B3 virus [6]): 106 ± 11 µM; SI (Coxsackie B3 virus [6]): 6 ^4,3
CC(=O)OCC1OC(n2cc(CCCCn3c(C)cc(=O)n(CCCCc4cn(C5OC(COC(C)=O)C(OC(C)=O)C5OC(C)=O)nn4)c3=O)nn2)C(OC(C)=O)C1OC(C)=O (stereo not shown) [Compound 2f] | 4 |  | 1 | 12.4 µM | > 338 µM | 18 µM |  |  | IC50 ([1]; Influenza A virus, H1N1, MDCK): 96.3 ± 12.4 µM; antiviral activity against influenza virus A H1N1 (in words) ([1]; MDCK cells): inactive; IC50 (Coxsackie B3 virus [2]): > 12.4 µM; IC50 (M-HeLa): 88.1 ± 7.4 µM; IC50 (HuTu-80): > 100 µM; IC50 (PC-3): > 100 µM; IC50 (WI-38): > 100 µM; CC50 (Vero cells [8]): 17.7 ± 0.6 µM
Cc1cc(CCCOc2c(C)cc(-c3noc(C(F)(F)F)n3)cc2C)on1 [Pleconaril, reference compound] |  |  | 46 | 21.6 µM |  | > 1000 µM |  |  | 
O=c1c2ccccc2n(CCCCc2cn(C3OC(CO)C(O)C3O)nn2)c(=O)n1CCCCc1cn(C2OC(CO)C(O)C2O)nn1 (stereo not shown) [Compound 4i] | 2 | 297 µM | 1 | > 446 µM | > 446 µM | > 446 µM |  |  | IC50 [1, 9]: 297 ± 32.4 µM
CCC(CC)O[C@@H]1C=C(C(=O)O)C[C@H](N)[C@H]1NC(C)=O [Oseltamivir carboxylate, reference compound] | >667 |  |  |  | > 200 µM |  |  |  | IC50 ([1]; Influenza A virus, H1N1, MDCK): 0.3 ± 0.06 µM
